Data reported in patent publication EP0609437B1, “NOVEL SPHINGOGLYCOLIPID AND USE THEREOF” (KIRIN BEER KABUSHIKI KAISHA, priority 1991, dated 1993).

Assays:
[1] = system: B16 mouse melanoma cells; experiment: Anti-tumor activity against B16 mouse melanoma inoculated subcutaneously; type: in vivo; settings: Mus musculus, iv, 480 h; maximum tumor growth inhibition rate during the test period of 20 days; female BDF1 mice; 0.1 mg/kg intravenously on days 1, 5 and 9 after s.c. inoculation; read-out: TGIR (%)
Method: Anti-tumor activity against B16 mouse melanoma inoculated subcutaneously.
Experiment was carried out with the groups of 6 female BDF1 mice (6 weeks old) purchased from Japan SLC Inc., B16 mouse melanoma cells (1 × 10^6 cells/mouse) were inoculated subcutaneously in the rear region of mice, and the sample prepared in a concentration of 0.1 mg/kg was administered intravenously at a dose of 0.2 ml/20g/mouse after 1, 5 and 9 days from inoculation (the day of inoculation being set as 0 day). The volume of the tumor at the hypodermis of the rear region [(longer diameter × shorter diameter × height)/2] was measured on 8, 12, 16 and 20 days after inoculation, and the tumor growth inhibition rate (TGIR) of each sample was determined. TGIR was calculated from the following equation: TGIR (%) = (1 - T/C) × 100 [formula] wherein C represents a tumor volume of the control group and T represents a tumor volume of the group to which the sample was administered.
In this connection, respective test runs were divided by broken lines.

[2] = system: spleen cells of C57BL/6 mouse and pancreatic cells of BALB/c mouse; experiment: Lymphocyte mixed culture reaction (mouse MLR), uptake of 3H-TdR; type: cell-based; settings: Mus musculus, Lymphocyte, 50 h, cultured for 42 hours, then 8 hours with 3H-TdR, read-out: Uptake of ^3H-TdR (% of control); for activity at 1 µg/mL: sample concentration 10^0 µg/ml; for activity at 0.1 µg/mL: sample concentration 10^-1 µg/ml; for activity at 0.01 µg/mL: sample concentration 10^-2 µg/ml
Method: Experiment was carried out with the spleen cells of C57BL/6 mouse which had been treated with mitomycin C (50 µg/ml, 30 min) as the stimulator and with the […] cells of BALB/c mouse as the responder. These […] cells were suspended to a concentration of 2 × 10^6 cells/ml with a culture medium of 10% FCS RPMI 1640, respectively. These cells (50 µl/well) and a sample (10 µl/well) were plated in a 96 well round-bottomed plate and cultured for 42 hours* under the condition of 37°C and 5% CO2. ^3H-thymidine (^3H-TdR) was added in a dose of 0.5 µCi/well. After 8 hours, the cells were harvested and subjected to the measurement of the uptake of ^3H-TdR by a liquid scintillation counter.
*The samples of the compounds 32, 33 and 34 were cultured for 4 days.

Structure (SMILES): CCCCCCCCCCCCCCCCCCCCCCCC(=O)N[C@@H](CO[C@H]1O[C@H](CO)[C@H](O)[C@H](O)[C@H]1O)[C@H](O)CCCCCCCCCCCCCCC [Compound 1, (2S,3R)-1-(α-D-galactopyranosyloxy)-2-tetracosanoylamino-3-octadecanol]
- inhibition in vivo at 0.1 mg/kg [1]: 91.4%
- activity at 1 µg/mL [2]: 359%
- activity at 0.1 µg/mL [2]: 151%
- activity at 0.01 µg/mL [2]: 136%

Structure (SMILES): CCCCCCCCCCCCCCCCCCCCCC(=O)N[C@@H](CO[C@H]1O[C@H](CO)[C@H](O)[C@H](O)[C@H]1O)[C@H](O)CCCCCCCCCCCCCCC [Compound 2, (2S,3R)-2-docosanoylamino-1-(α-D-galactopyranosyloxy)-3-octadecanol]
- inhibition in vivo at 0.1 mg/kg [1]: 53.1%
- activity at 1 µg/mL [2]: 329%
- activity at 0.1 µg/mL [2]: 115%
- activity at 0.01 µg/mL [2]: 103%

Structure (SMILES): CCCCCCCCCCCCCCCCCCCC(=O)N[C@@H](CO[C@H]1O[C@H](CO)[C@H](O)[C@H](O)[C@H]1O)[C@H](O)CCCCCCCCCCCCCCC [Compound 3, (2S,3R)-1-(α-D-galactopyranosyloxy)-2-icosanoylamino-3-octadecanol]
- inhibition in vivo at 0.1 mg/kg [1]: 56.9%
- activity at 1 µg/mL [2]: 254%
- activity at 0.1 µg/mL [2]: 117%
- activity at 0.01 µg/mL [2]: 110%

Structure (SMILES): CCCCCCCCCCCCCCCCCC(=O)N[C@@H](CO[C@H]1O[C@H](CO)[C@H](O)[C@H](O)[C@H]1O)[C@H](O)CCCCCCCCCCCCCCC [Compound 4, (2S,3R)-1-(α-D-galactopyranosyloxy)-2-octadecanoylamino-3-octadecanol]
- inhibition in vivo at 0.1 mg/kg [1]: 78.1%
- activity at 1 µg/mL [2]: 269%
- activity at 0.1 µg/mL [2]: 158%
- activity at 0.01 µg/mL [2]: 134%

Structure (SMILES): CCCCCCCCCCCCCCC[C@@H](O)[C@H](CO[C@H]1O[C@H](CO)[C@H](O)[C@H](O)[C@H]1O)NC(=O)CCCCCCCCC [Compound 6, (2S,3R)-2-decanoylamino-1-(α-D-galactopyranosyloxy)-3-octadecanol]
- inhibition in vivo at 0.1 mg/kg [1]: 73.7%
- activity at 1 µg/mL [2]: 498%
- activity at 0.1 µg/mL [2]: 190%
- activity at 0.01 µg/mL [2]: 187%

Structure (SMILES): CCCCCCCCCCCCCCC[C@@H](O)[C@H](CO[C@H]1O[C@H](CO)[C@H](O)[C@H](O)[C@H]1O)NC(=O)CCCCCCC [Compound 7, (2S,3R)-1-(α-D-galactopyranosyloxy)-2-octanoylamino-3-octadecanol]
- inhibition in vivo at 0.1 mg/kg [1]: 18.5%
- activity at 1 µg/mL [2]: 853%
- activity at 0.1 µg/mL [2]: 576%
- activity at 0.01 µg/mL [2]: 207%

Structure (SMILES): CCCCCCCCCCCCCCC[C@@H](O)[C@H](CO[C@H]1O[C@H](CO)[C@H](O)[C@H](O)[C@H]1O)NC(C)=O [Compound 8, (2S,3R)-2-acetamino-1-(α-D-galactopyranosyloxy)-3-octadecanol]
- inhibition in vivo at 0.1 mg/kg [1]: 22.1%
- activity at 1 µg/mL [2]: 297%
- activity at 0.1 µg/mL [2]: 189%
- activity at 0.01 µg/mL [2]: 96%

Structure (SMILES): CCCCCCCCCCCCCCCCCCCCCCCC(=O)N[C@@H](CO[C@H]1O[C@H](CO)[C@H](O)[C@H](O)[C@H]1O)[C@H](O)CCCCCCCCCCC [Compound 9, (2S,3R)-1-(α-D-galactopyranosyloxy)-2-tetracosanoylamino-3-tetradecanol]
- inhibition in vivo at 0.1 mg/kg [1]: 71.5%
- activity at 1 µg/mL [2]: 460%
- activity at 0.1 µg/mL [2]: 193%
- activity at 0.01 µg/mL [2]: 176%

Structure (SMILES): CCCCCCCCCCCCCC(=O)N[C@@H](CO[C@H]1O[C@H](CO)[C@H](O)[C@H](O)[C@H]1O)[C@H](O)CCCCCCCCCCCCC [Compound 10, (2S,3R)-1-(α-D-galactopyranosyloxy)-2-tetradecanoylamino-3-hexadecanol]
- inhibition in vivo at 0.1 mg/kg [1]: 76.5%
- activity at 1 µg/mL [2]: 610%
- activity at 0.1 µg/mL [2]: 381%
- activity at 0.01 µg/mL [2]: 157%

Structure (SMILES): CCCCCCCCCCCCCC(=O)N[C@H](CO[C@H]1O[C@H](CO)[C@H](O)[C@H](O)[C@H]1O)[C@@H](O)CCCCCCCCCCCCC [Compound 11, (2R,3S)-1-(α-D-galactopyranosyloxy)-2-tetradecanoylamino-3-hexadecanol]
- inhibition in vivo at 0.1 mg/kg [1]: 55.9%
- activity at 1 µg/mL [2]: 128%
- activity at 0.1 µg/mL [2]: 105%
- activity at 0.01 µg/mL [2]: 95%

Structure (SMILES): CCCCCCCCCCCCCC(=O)N[C@@H](CO[C@H]1O[C@H](CO)[C@H](O)[C@H](O)[C@H]1O)[C@@H](O)CCCCCCCCCCCCC [Compound 12, (2S,3S)-1-(α-D-galactopyranosyloxy)-2-tetradecanoylamino-3-hexadecanol]
- inhibition in vivo at 0.1 mg/kg [1]: 41.8%
- activity at 1 µg/mL [2]: 123%
- activity at 0.1 µg/mL [2]: 99%
- activity at 0.01 µg/mL [2]: 104%

Structure (SMILES): CCCCCCCCCCCCCC(=O)N[C@H](CO[C@H]1O[C@H](CO)[C@H](O)[C@H](O)[C@H]1O)[C@H](O)CCCCCCCCCCCCC [Compound 13, (2R,3R)-1-(α-D-galactopyranosyloxy)-2-tetradecanoylamino-3-hexadecanol]
- inhibition in vivo at 0.1 mg/kg [1]: 28.2%
- activity at 1 µg/mL [2]: 139%
- activity at 0.1 µg/mL [2]: 106%
- activity at 0.01 µg/mL [2]: 107%

Structure (SMILES): CCCCCCCCCCCCCCCCCCCCCC[C@@H](O)C(=O)N[C@@H](CO[C@H]1O[C@H](CO)[C@H](O)[C@H](O)[C@H]1O)[C@H](O)CCCCCCCCCCCCCCC [Compound 14, (2S,3R)-1-(α-D-galactopyranosyloxy)-2-[(R)-2-hydroxytetracosanoylamino]-3-octadecanol]
- inhibition in vivo at 0.1 mg/kg [1]: 84%
- activity at 1 µg/mL [2]: 289%
- activity at 0.1 µg/mL [2]: 197%
- activity at 0.01 µg/mL [2]: 139%

Structure (SMILES): CCCCCCCCCCCCC/C=C/[C@@H](O)[C@H](CO[C@H]1O[C@H](CO)[C@H](O)[C@H](O)[C@H]1O)NC(=O)CCCCCCCCCCCCCCCCC [Compound 15, (2S,3R,4E)-1-(α-D-galactopyranosyloxy)-2-octadecanoylamino-4-octadecen-3-ol]
- inhibition in vivo at 0.1 mg/kg [1]: 61.9%
- activity at 1 µg/mL [2]: 360%
- activity at 0.1 µg/mL [2]: 165%
- activity at 0.01 µg/mL [2]: 144%

Structure (SMILES): CCCCCCCCCCCCCCCCCCCCCCCC(=O)N[C@@H](CO[C@H]1O[C@H](CO)[C@H](O)[C@H](O)[C@H]1O)[C@H](O)[C@H](O)CCCCCCCCCCCCCC [Compound 16, (2S,3S,4R)-1-(α-D-galactopyranosyloxy)-2-tetracosanoylamino-3,4-octadecanediol]
- inhibition in vivo at 0.1 mg/kg [1]: 65%
- activity at 1 µg/mL [2]: 321%
- activity at 0.1 µg/mL [2]: 176%
- activity at 0.01 µg/mL [2]: 160%

Structure (SMILES): CCCCCCCCCCCCCCCCCCCCCCCC(=O)N[C@@H](CO[C@H]1O[C@H](CO)[C@H](O)[C@H](O)[C@H]1O)[C@H](O)[C@H](O)CCCCCCCCCCCCC [Compound 17, (2S,3S,4R)-1-(α-D-galactopyranosyloxy)-2-tetracosanoylamino-3,4-heptadecanediol]
- inhibition in vivo at 0.1 mg/kg [1]: 58%
- activity at 1 µg/mL [2]: 410%
- activity at 0.1 µg/mL [2]: 190%
- activity at 0.01 µg/mL [2]: 143%

Structure (SMILES): CCCCCCCCCCCCCCCCCCCCCCCC(=O)N[C@@H](CO[C@H]1O[C@H](CO)[C@H](O)[C@H](O)[C@H]1O)[C@H](O)[C@H](O)CCCCCCCCCCC [Compound 18, (2S,3S,4R)-1-(α-D-galactopyranosyloxy)-2-tetracosanoylamino-3,4-pentadecanediol]
- inhibition in vivo at 0.1 mg/kg [1]: 66.3%
- activity at 1 µg/mL [2]: 482%
- activity at 0.1 µg/mL [2]: 176%
- activity at 0.01 µg/mL [2]: 138%

Structure (SMILES): CCCCCCCCCCCCCCCCCCCCCCCC(=O)N[C@@H](CO[C@H]1O[C@H](CO)[C@H](O)[C@H](O)[C@H]1O)[C@H](O)[C@H](O)CCCCCCC [Compound 19, (2S,3S,4R)-1-(α-D-galactopyranosyloxy)-2-tetracosanoylamino-3,4-undecanediol]
- inhibition in vivo at 0.1 mg/kg [1]: 80.2%
- activity at 1 µg/mL [2]: 345%
- activity at 0.1 µg/mL [2]: 188%
- activity at 0.01 µg/mL [2]: 144%

Structure (SMILES): CCCCCCCCCCCCCCCCCCCCCCCCCC(=O)N[C@@H](CO[C@H]1O[C@H](CO)[C@H](O)[C@H](O)[C@H]1O)[C@H](O)[C@H](O)CCCCCCCCCCCCC [Compound 20, (2S,3S,4R)-1-(α-D-galactopyranosyloxy)-2-hexacosanoylamino-3,4-heptadecanediol]
- inhibition in vivo at 0.1 mg/kg [1]: 73.7%
- activity at 1 µg/mL [2]: 443%
- activity at 0.1 µg/mL [2]: 188%
- activity at 0.01 µg/mL [2]: 192%

Structure (SMILES): CCCCCCCCCCCCCCCCCCCCCC[C@@H](O)C(=O)N[C@@H](CO[C@H]1O[C@H](CO)[C@H](O)[C@H](O)[C@H]1O)[C@H](O)[C@H](O)CCCCCCCCCCCCCC [Compound 21, (2S,3S,4R)-1-(α-D-galactopyranosyloxy)-2-[(R)-2-hydroxytetracosanoylamino]-3,4-octadecanediol]
- inhibition in vivo at 0.1 mg/kg [1]: 57.9%
- activity at 1 µg/mL [2]: 304%
- activity at 0.1 µg/mL [2]: 149%
- activity at 0.01 µg/mL [2]: 142%
